For assay [1], the target named is T1, SARS-CoV-2 PLpro (nsp3 1564–1878) (Severe acute respiratory syndrome coronavirus 2, UniProt P0DTD1). Put plainly: biochemical. More on the design: FRET-quenched peptide (Pro3) cleavage by PLpro, 10 min pre-incubation, slope over 20 min, normalised to no-compound control. As to conditions: low concentration screen, read-out: % of control remaining.
Assay [2] has as its target T1, SARS-CoV-2 PLpro (nsp3 1564–1878). Put plainly: biochemical. More on the design: FRET-quenched peptide (Pro3) cleavage by PLpro, 10 min pre-incubation, slope over 20 min, normalised to no-compound control. As to conditions: high concentration screen, read-out: % of control remaining.

Structures can show the parent of a compound that is named as a salt. Where two headings read alike, the source gives them in different places.

Regarding `Cc1cccc(Nc2cc(Cl)nc(SCC(=O)O)n2)c1C` [WY-14643], in assay [1] (Well no.=4570), the remaining activity at 1.25 µM turned out to be 97.3%. Moreover, the remaining activity at 3.75 µM in assay [2] (Well no.=4570) worked out at 103%.

`CCOC(=O)c1cnc(C#Cc2ccc3c(c2)C(C)(C)CC[S+]3[O-])nc1` (centres unmarked) [WYC-209]: in assay [1] (Well no.=7204), the remaining activity at 1.25 µM was determined as 92.4%. Moreover, in assay [2] (Well no.=7204), the remaining activity at 3.75 µM is 90.8%.

As to `COC(=O)Nc1ccc(-c2nc(N3CCOCC3)c3cnn(C4CCN(C(=O)OC)CC4)c3n2)cc1` [WYE-354], the remaining activity at 1.25 µM in assay [1] (Well no.=4769) was determined as 101%. Moreover, the remaining activity at 3.75 µM in assay [2] (Well no.=4769) amounted to 103%.

`COC(=O)Nc1ccc(-c2nc(N3CCOCC3)c3cnn(C4CCN(Cc5cccnc5)CC4)c3n2)cc1` [WYE-687]: the remaining activity at 1.25 µM in assay [1] (Well no.=4645) is 104%. For the same molecule, the remaining activity at 3.75 µM in assay [2] (Well no.=4645) worked out at 103%.

`CNC(=O)Nc1ccc(-c2nc(N3CC4CCC(C3)O4)c3cnn(C4CCC5(CC4)OCCO5)c3n2)cc1` [WYE-125132]: the remaining activity at 1.25 µM in assay [1] (Well no.=4641) was found to be 99.8%. Moreover, the remaining activity at 3.75 µM in assay [2] (Well no.=4641) is 104%.

In the case of `c1ccc(NCc2ccc(CNc3ccccn3)cc2)nc1` [WZ811], the remaining activity at 1.25 µM was found to be 102% in assay [1] (Well no.=7135) and 98.2% in assay [1] (Well no.=8459). For the same molecule, the remaining activity at 3.75 µM in assay [2] (Well no.=7135) was determined as 96.2%; in assay [2] (Well no.=8459) it was 88.4%.

On to `C=CC(=O)Nc1cccc(Oc2nc(Nc3ccc(N4CCN(C)CC4)cc3)ncc2Cl)c1` [WZ3146], for which, in assay [1] (Well no.=4711), the remaining activity at 1.25 µM was determined as 103%. In addition, the remaining activity at 3.75 µM in assay [2] (Well no.=4711) came to 106%.

Regarding `C=CC(=O)Nc1cccc(Oc2nc(Nc3ccc(N4CCN(C)CC4)cc3OC)ncc2Cl)c1` [WZ4002], the remaining activity at 1.25 µM in assay [1] (Well no.=4713) is 107%. Further, the remaining activity at 3.75 µM in assay [2] (Well no.=4713) was 106%.

With `C=CC(=O)Nc1cccc(Sc2nc(Nc3ccc(N4CCN(C)CC4)cc3)ncc2Cl)c1` [WZ8040], the remaining activity at 1.25 µM in assay [1] (Well no.=4717) is 107%. Further, in assay [2] (Well no.=4717), the remaining activity at 3.75 µM was 107%.

In the case of `c1ccc(NCc2ccc(CNc3ccccn3)cc2)nc1` [WZ 811], in assay [1] (Well no.=4843), the remaining activity at 1.25 µM was 100%. For the same molecule, in assay [2] (Well no.=4843), the remaining activity at 3.75 µM came to 102%.

In the case of `O=C(Oc1cccc(F)c1OC(=O)c1cccc(O)c1)c1cccc(O)c1` [WZB117], in assay [1] (Well no.=8770), the remaining activity at 1.25 µM came out at 102%. Also, in assay [2] (Well no.=8770), the remaining activity at 3.75 µM stood at 101%.

Consider `COc1cc(O)c2c(c1)oc(=O)c1c3cc(O)c(O)cc3oc21` [Wedelolactone], for which the remaining activity at 1.25 µM in assay [1] (Well no.=3230) was 99.3%. For the same molecule, in assay [2] (Well no.=3230), the remaining activity at 3.75 µM came out at 98%.

For `CCCCn1c2ccc(O)cc2c2c3c(c(-c4ccccc4Cl)cc21)C(=O)NC3=O` [Wee1 Inhibitor II], the remaining activity at 1.25 µM in assay [1] (Well no.=2685) stood at 90.9%. The remaining activity at 3.75 µM in assay [2] (Well no.=2685) is 88.5%.

Consider `O=C1NC(=O)c2c1c(-c1ccccc1Cl)cc1[nH]c3ccc(O)cc3c21` [Wee1 Inhibitor], for which the remaining activity at 1.25 µM in assay [1] (Well no.=2683) turned out to be 97.3%. Besides, the remaining activity at 3.75 µM in assay [2] (Well no.=2683) stood at 97.7%.

For the molecule `COc1c(O)cc(O)c2c(=O)cc(-c3ccccc3)oc12` [Wogonin], in assay [1] (Well no.=3735), the remaining activity at 1.25 µM was 96.1%. Also, the remaining activity at 3.75 µM in assay [2] (Well no.=3735) stood at 98.6%.

With `COC[C@H]1OC(=O)c2coc3c2[C@@]1(C)C1=C(C3=O)C2CCC(=O)[C@@]2(C)C[C@H]1OC(C)=O` (some centres unmarked) [Wortmannin from Penicillium funiculosum], the remaining activity at 1.25 µM in assay [1] (Well no.=1386) amounted to 92.9%. Further, the remaining activity at 3.75 µM in assay [2] (Well no.=1386) was 94.7%.

As to `COC[C@H]1OC(=O)c2coc3c2[C@@]1(C)C1=C(C3=O)[C@@H]2CCC(=O)[C@@]2(C)C[C@H]1OC(C)=O` [Wortmannin], in assay [1] (Well no.=3232), the remaining activity at 1.25 µM was determined as 99.9%. In addition, the remaining activity at 3.75 µM in assay [2] (Well no.=3232) stood at 102%.

Take `Oc1nc(-c2ccc(C(F)(F)F)cc2)nc2c1CSCC2` [XAV-939]: the remaining activity at 1.25 µM in assay [1] (Well no.=4719) was 102%. In addition, the remaining activity at 3.75 µM in assay [2] (Well no.=4719) stood at 103%.

`CCN(Cc1ccccc1)C(=O)Cn1c(=O)n(C)c2cnc(-c3ccccc3)nc21` [XBD173]: the remaining activity at 1.25 µM in assay [1] (Well no.=6053) amounted to 102%. In addition, the remaining activity at 3.75 µM in assay [2] (Well no.=6053) came out at 100%.

For the molecule `O=C(O)c1cc(C(F)(F)F)ccc1N1CC[C@H](OCc2ccccn2)C1` [XEN445], the remaining activity at 1.25 µM in assay [1] (Well no.=8574) was 105%. For the same molecule, the remaining activity at 3.75 µM in assay [2] (Well no.=8574) came to 109%.

As to `CCN(CC)CCCC(C)Nc1cc(/C=C/c2ccccc2Cl)nc2cc(Cl)ccc12` (centres unmarked) [XIB4035], in assay [1] (Well no.=5692), the remaining activity at 1.25 µM came to 89%. The remaining activity at 3.75 µM in assay [2] (Well no.=5692) worked out at 89.5%.

Turning to `COc1ccc(Cl)c(Nc2nc3ccccc3nc2NS(=O)(=O)c2cccc(NC(=O)C(C)(C)N)c2)c1` [XL147], the remaining activity at 1.25 µM in assay [1] (Well no.=4669) was 105%. Besides, the remaining activity at 3.75 µM in assay [2] (Well no.=4669) came out at 106%.

Consider `CC[C@@H](C)Nc1cc(C(=O)N[C@H]2C[C@H]3CC[C@@H](C2)N3c2ccc(C(=O)C3CC3)cn2)c(C)cc1C(N)=O` [XL888], for which the remaining activity at 1.25 µM in assay [1] (Well no.=8982) came to 90.5%. In addition, the remaining activity at 3.75 µM in assay [2] (Well no.=8982) is 93.8%.

As for `CCOc1cc(N2CCC(O)CC2)ccc1Nc1ncc2c(n1)N(C)c1ccccc1C(=O)N2C` [XMD8-92], the remaining activity at 1.25 µM in assay [1] (Well no.=5565) came to 93.8%. Moreover, the remaining activity at 3.75 µM in assay [2] (Well no.=5565) stood at 95.2%.

As for `CN1C(=O)c2sccc2N(C)c2nc(Nc3ccc(S(N)(=O)=O)cc3)ncc21` [XMU-MP-1], in assay [1] (Well no.=8268), the remaining activity at 1.25 µM came to 97%. The remaining activity at 3.75 µM in assay [2] (Well no.=8268) came to 91.6%.

For `FC(F)(F)c1cccc(C2=CCN(CCc3ccc4ccccc4c3)CC2)c1` [Xaliproden hydrochloride], the remaining activity at 1.25 µM in assay [1] (Well no.=5767) was found to be 106%. The remaining activity at 3.75 µM in assay [2] (Well no.=5767) amounted to 105%.

In the case of `O=C(NCCNCC(O)COc1ccc(O)cc1)N1CCOCC1` (centres unmarked) [Xamoterol hemifumarate], the results for the remaining activity at 1.25 µM in assay [1] (Well no.=1436) and in assay [1] (Well no.=1741) were 95.5% and 102%, respectively. For the same molecule, the remaining activity at 3.75 µM in assay [2] (Well no.=1436) is 95.1%; in assay [2] (Well no.=1741), 103%.

For the molecule `CCCCCCOc1nsnc1C1=CCCN(C)C1` [Xanomeline (oxalate)], the remaining activity at 1.25 µM in assay [1] (Well no.=8005) amounted to 103%. The remaining activity at 3.75 µM in assay [2] (Well no.=8005) was determined as 100%.

Consider `CCCn1c(=O)c2[nH]c(-c3ccc(OCC(=O)NCCN)cc3)nc2n(CCC)c1=O` [Xanthine amine congener], for which the remaining activity at 1.25 µM in assay [1] (Well no.=1532) was 95.7%. Moreover, the remaining activity at 3.75 µM in assay [2] (Well no.=1532) came out at 89.4%.

In the case of `O=c1[nH]c(=O)c2nc[nH]c2[nH]1` [Xanthine], in assay [1] (Well no.=7203), the remaining activity at 1.25 µM was 97.4%. Also, the remaining activity at 3.75 µM in assay [2] (Well no.=7203) was 96.5%.

On to `COc1cc(O)c(CC=C(C)C)c(O)c1C(=O)/C=C/c1ccc(O)cc1` [Xanthohumol], for which the remaining activity at 1.25 µM in assay [1] (Well no.=8578) came out at 106%. In assay [2] (Well no.=8578), the remaining activity at 3.75 µM was 102%.

As to `OC[C@H]1O[C@@H](n2cnc3c(O)nc(O)nc32)[C@H](O)[C@@H]1O` [Xanthosine], the remaining activity at 1.25 µM in assay [1] (Well no.=7397) was found to be 106%. In assay [2] (Well no.=7397), the remaining activity at 3.75 µM came out at 107%.

These data come from PMC8286840, “Identifying SARS-CoV-2 antiviral compounds by screening for small molecule inhibitors of Nsp3 papain-like protease” (Biochemical Journal, 2021).
